Experimental data taken from publication PMC8508710, “Biochemical Characterization of 13-Lipoxygenases of Arabidopsis thaliana” (International Journal of Molecular Sciences, 2021).

Key:
LOX3 = target: T1, LOX3 (Arabidopsis thaliana, UniProt Q9LNR3); test: Intrinsic fluorescence of LOX3; format: binding; design: made in house; host or cells: E. coli Nico21(DE3), pET15b; conditions: as Figure 5B; for Emission maximum: control 330.8±1.6, in nm (unit assumed); for Relative fluorescence intensity at emission maximum: λExc = 280 nm, control 134.5±3.9
T1 sequence (Q9LNR3 71-919): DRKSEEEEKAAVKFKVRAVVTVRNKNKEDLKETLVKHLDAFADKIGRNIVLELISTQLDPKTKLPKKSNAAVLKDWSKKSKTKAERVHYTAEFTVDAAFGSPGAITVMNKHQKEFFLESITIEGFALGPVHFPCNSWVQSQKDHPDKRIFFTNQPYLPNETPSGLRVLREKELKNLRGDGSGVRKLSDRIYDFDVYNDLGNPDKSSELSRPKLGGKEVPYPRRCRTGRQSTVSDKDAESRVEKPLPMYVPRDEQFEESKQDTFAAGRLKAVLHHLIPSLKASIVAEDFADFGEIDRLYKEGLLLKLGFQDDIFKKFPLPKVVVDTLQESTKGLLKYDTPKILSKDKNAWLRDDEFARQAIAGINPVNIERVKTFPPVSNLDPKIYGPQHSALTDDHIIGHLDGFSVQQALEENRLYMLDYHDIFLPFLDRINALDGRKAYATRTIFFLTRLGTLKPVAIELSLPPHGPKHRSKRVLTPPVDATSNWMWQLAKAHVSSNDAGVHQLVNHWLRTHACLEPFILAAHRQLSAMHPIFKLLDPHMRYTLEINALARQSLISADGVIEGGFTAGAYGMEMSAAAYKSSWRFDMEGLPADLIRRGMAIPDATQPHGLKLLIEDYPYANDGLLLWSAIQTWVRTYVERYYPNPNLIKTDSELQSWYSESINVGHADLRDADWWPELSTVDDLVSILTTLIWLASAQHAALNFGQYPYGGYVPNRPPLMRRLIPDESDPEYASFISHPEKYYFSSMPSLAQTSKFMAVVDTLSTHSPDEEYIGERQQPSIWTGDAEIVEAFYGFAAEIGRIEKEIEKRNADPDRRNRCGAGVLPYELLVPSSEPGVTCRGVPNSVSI
Protocol: Figure 5 Analysis of the interaction of 12-OPDA and MJ with LOX4. […] LOX4 (0.22 µg/µL) was incubated with compounds at indicated concentrations for 10 min at 30 °C, and residual LOX activity was measured spectrophotometrically by the injection of 3 µL incubation mixture into 123 µL LeA (4.8 µM in 50 mM Tris-HCl, pH 7.2). […] (B) Intrinsic fluorescence of LOX4 incubated with 12-OPDA, MJ and solvent (control). Here, 120 µL LOX4 (0.2 µg/µL) was mixed with 15 µL chemical (1.4 mM in 50 mM K-Pi, pH 8.0) or solvent (control) and analyzed for intrinsic fluorescence emission after excitation at λExc = 280 nm. Mean graphs are shown (n = 4).
Int. J. Mol. Sci. 2021, 22, x FOR PEER REVIEW 11 of 17
Figure S7. Interaction and activity studies of LOX2, LOX3 and LOX6. (A) LOX2, LOX3 and LOX6 activities in presence of increasing amounts of MJ and 12-OPDA. Analysis was performed as described for IC50 determination of LOX4 (see Figure 5A). 100% activity […]
(B) Intrinsic fluorescence of LOX2 and LOX3 incubated with 12-OPDA, MJ and solvent control. Analysis was performed as in Figure 5B. […]

LOX4 = target: T2, LOX4 (Arabidopsis thaliana, UniProt Q9FNX8); test: Free thiols of LOX4 (Ellman, DTNB); design: made in house; host or cells: E. coli Nico21(DE3), pET15b; conditions: LOX4 4.2 µM incubated 20 min with 12-OPDA; control 7.6 ± 0.1
T2 sequence (Q9FNX8 71-926): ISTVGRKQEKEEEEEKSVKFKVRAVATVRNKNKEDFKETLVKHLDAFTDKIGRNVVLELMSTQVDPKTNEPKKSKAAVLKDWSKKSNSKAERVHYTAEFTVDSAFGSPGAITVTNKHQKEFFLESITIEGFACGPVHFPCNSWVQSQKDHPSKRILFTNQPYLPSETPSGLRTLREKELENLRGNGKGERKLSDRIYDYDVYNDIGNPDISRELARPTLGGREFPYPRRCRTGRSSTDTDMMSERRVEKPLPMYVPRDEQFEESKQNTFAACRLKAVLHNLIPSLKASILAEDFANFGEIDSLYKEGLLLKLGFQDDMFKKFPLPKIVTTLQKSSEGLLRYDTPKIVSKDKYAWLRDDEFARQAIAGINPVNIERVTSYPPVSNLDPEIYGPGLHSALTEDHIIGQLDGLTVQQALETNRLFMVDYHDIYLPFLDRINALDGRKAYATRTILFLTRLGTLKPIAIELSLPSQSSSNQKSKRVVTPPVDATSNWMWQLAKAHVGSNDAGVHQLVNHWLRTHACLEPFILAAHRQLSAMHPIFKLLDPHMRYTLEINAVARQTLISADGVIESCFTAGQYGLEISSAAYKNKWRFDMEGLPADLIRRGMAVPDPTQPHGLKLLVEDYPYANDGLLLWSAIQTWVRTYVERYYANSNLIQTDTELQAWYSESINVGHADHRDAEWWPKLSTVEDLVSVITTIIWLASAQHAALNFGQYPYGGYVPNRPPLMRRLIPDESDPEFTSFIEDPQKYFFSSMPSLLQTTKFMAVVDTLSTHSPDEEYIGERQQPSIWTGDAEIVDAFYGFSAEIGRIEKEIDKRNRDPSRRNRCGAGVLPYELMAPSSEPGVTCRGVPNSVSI
Protocol: The iron content was analyzed as described. Free protein thiols were determined as described in [80] with slight variations. Briefly, 150 µL LOX4 (4.2 µM) was mixed with 1.5 µL 30 mM 12-OPDA (in EtOH) or EtOH (solvent control). After 20 min of incubation at 25 °C, samples were mixed with 10 µL dithionitrobencene (DTNB, 2 mM in 40 mM K-Pi, pH 8.0) and incubated for 30 min in the dark. Samples were measured at 412 nm, ε412nm = 13,600 […] (KC4 microplate reader, Biotec, 25 °C) for determination of the thiol/protein ratio with background correction (150 µL 40 mM K-Pi, pH 8.0, 10 µL DTNB 2 mM, 1.5 µL ligand stock or EtOH).

Row | SMILES | Emission maximum (LOX3) | Relative fluorescence intensity at emission maximum (LOX3) | Free thiols (Cys residues) of LOX4 after incubation (LOX4)
1 | CCC=CCC1C(=O)C=CC1CCCCCCCC(=O)O (stereo not drawn) [12-OPDA, cis-(+)-12-oxophytodienoic acid] | 333.2±0.3 | 115.2±1.3 | 5.9 ± 0.1 mol·mol^−1
2 | CC/C=C\CC1C(=O)CCC1CC(=O)OC (centres unmarked) [MJ, methyl jasmonate] | 331.7±0.8 | 126.4±3.0 | 
